Results taken from patent US9518976B2, “Methods for identifying or assaying for agents that increase beta-cell proliferation, insulin secretion, insulin sensitivity, glucose tolerance and decrease fat mass” (The Trustees of Columbia University in The City of New York, priority 2006, dated 2016).

Columns and labels:
[1] = system: osteoblasts; experiment: Osteocalcin/hydroxyapatite (HA) binding assay on medium of warfarin-treated osteoblasts; assay type: cell-based, mouse
Protocol: Primary osteoblasts were prepared from calvaria of 5 day-old pups as previously described (Ducy et al., 2000a) and were cultured in αMEM/10% FBS in the presence of 100 μg/ml ascorbic acid and 5 mM β-glycerophosphate for 5 days. Skin fibroblasts were isolated by collagenase digestion (0.5 mg/ml) and were cultured in […]MEM/10% FBS. Twenty-four hours before addition of primary islets (or adipocytes), osteoblasts (or fibroblasts) were placed in αMEM/1% FBS. […] After 4 h of co-culture, either in the presence or absence of (1 μm) culture inserts (Falcon) islets (or adipocytes) were collected for RNA isolation using TRIZOL (Invitrogen).
Sera from 1 month-old mice, obese patients or supernatant from warfarin-treated osteoblast cultures were added to HA slurry to achieve a final concentration of 25 mg slurry/ml. After 15 min (mouse sera, supernatant) or 30 min (human sera), HA beads were pelleted by centrifugation and HA-bound osteocalcin was eluted with 0.5M sodium phosphate buffer, pH 8.0. Osteocalcin present in eluates and initial samples was measured by IRMA. Values represent percentage of HA-bound osteocalcin over initial osteocalcin content. Hauschka, P. V., et al., Physiol Review 69, 990-1047 (1989).
To determine whether this was the case, two additional experiments were performed. […] Second, carboxylated osteocalcin and bacterially produced mouse osteocalcin, which is not carboxylated, were used in cell-based assays. […] Lastly, we studied human obese patients that are hyperinsulinemic but not diabetic (FIG. 7M).

[2] = system: WT adipocytes; experiment: Adiponectin expression in WT adipocytes cocultured with warfarin-treated osteoblasts; assay type: cell-based, mouse; conditions: adipocytes cocultured with warfarin-treated vs vehicle-treated osteoblasts (FIG. 7J)
Excerpt: FIG. 7. Esp−/− Mice Are a Model of Increased Osteocalcin Bioactivity. (A-G) Comparison between 6-week-old WT, Esp−/, Ocn+/−, and Esp−/−; Ocn+/− mice. (A) Blood glucose levels. (B) Serum insulin levels. (C) Serum adiponectin levels. (D) GTT. (E) ITT. (F) GSIS test. (G) Quantification of the number of Ki67-immunoreactive cells in pancreatic islets. […] (J) Expression of Adiponectin in WT adipocytes cocultured with osteoblasts treated with warfarin or vehicle. (K) Expression of Adiponectin in WT adipocytes cultured in presence of vehicle or of 1 ng/ml of commercially available carboxylated osteocalcin (Immunotopics) or bacterially produced uncarboxylated osteocalcin. (L) Expression of Insulin and Cyclin D1 in WT islets cultured in presence of 0.3 ng/ml of bacterially produced uncarboxylated osteocalcin or vehicle. (M) Metabolic parameters and total serum osteocalcin levels in control and obese patients. (N-O) Quantification of carboxylated osteocalcin (HA-bound osteocalcin) in control and obese patients. In (A)-(C) and (G)-(L): *p<0.05 versus WT (Student's t test); in (D)-(F), °p<0.05 versus WT and *p % 0.001 versus WT (ANOVA followed by post hoc analysis).
Primary osteoblasts were prepared from calvaria of 5 day-old pups as previously described (Ducy et al., 2000a) and were cultured in αMEM/10% FBS in the presence of 100 μg/ml ascorbic acid and 5 mM β-glycerophosphate for 5 days. […]

SMILES: CC(=O)CC(c1ccccc1)c1c(O)c2ccccc2oc1=O (stereo not shown) [warfarin]
- percentage of osteocalcin bound to HA ([1]; conditioned medium of warfarin-treated osteoblasts vs vehicle, 50 μM, 48 h, 15 min HA incubation): marked decrease
- osteocalcin secreted by osteoblasts ([1]; warfarin-treated osteoblasts (vehicle 10 ng/ml)): 2 ng/mL
- levels of undercarboxylated osteocalcin produced by osteoblasts ([1]; warfarin-treated vs vehicle-treated osteoblasts (FIG. 7I)): elevated
- adiponectin expression induced by treated osteoblasts [2]: significantly higher extent
